Tests used:
[1] = biological target: Methionine aminopeptidase 2 (Homo sapiens, UniProt P50579); experiment: Inhibition of human MetAP2
HT-1080 = experiment: Cytotoxicity against human HT1080 cells
MDA-MB-435 [2] = experiment: Cytotoxicity against human MDA-MB-435 cells; type: functional, cell-based
MDA-MB-435 [3] = experiment: Cytotoxicity against human MDA-MB-435 cells assessed as reduction in cell viability after 24 hrs by MTT assay; type: functional, cell-based; settings: MDA-MB-435, 24 h
MDA-MB-435 [4] = experiment: Cytotoxicity against human MDA-MB-435 cells assessed as reduction in cell viability after 72 hrs by MTS assay; settings: MDA-MB-435, 72 h
A549 = experiment: Antiproliferative activity against human A549 cells after 96 hrs; settings: A549, 96 h
HCT-116 = experiment: cells; settings: Homo sapiens, HCT-116, 96 h
Description: Antiproliferative activity against human HCT116 cells after 96 hrs

MDA-MB-231 = experiment: Cytotoxicity against human MDA-MB-231 cells; type: functional, cell-based
[5] = biological target: Methionine aminopeptidase 1 (Homo sapiens, UniProt P53582); experiment: Inhibition of human MetAP1

Chain of Methionine aminopeptidase 2 (P50579 whole entry): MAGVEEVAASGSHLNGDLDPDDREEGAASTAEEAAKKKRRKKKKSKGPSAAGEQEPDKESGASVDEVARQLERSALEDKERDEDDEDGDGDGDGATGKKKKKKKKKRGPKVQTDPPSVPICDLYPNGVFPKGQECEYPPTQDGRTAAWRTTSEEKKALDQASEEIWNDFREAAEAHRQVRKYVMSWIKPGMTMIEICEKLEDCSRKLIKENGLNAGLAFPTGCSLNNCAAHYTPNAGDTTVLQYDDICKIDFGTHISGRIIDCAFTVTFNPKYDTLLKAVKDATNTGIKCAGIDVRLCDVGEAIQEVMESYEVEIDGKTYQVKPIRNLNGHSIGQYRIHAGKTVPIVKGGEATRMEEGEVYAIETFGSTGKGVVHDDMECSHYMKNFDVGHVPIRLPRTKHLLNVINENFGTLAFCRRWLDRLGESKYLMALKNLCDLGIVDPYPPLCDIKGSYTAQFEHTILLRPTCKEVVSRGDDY

CC(C)(C)OC(=O)Nc1cccnc1C(=O)Nc1nccs1
IC50 [1]: > 300000 nM | IC50 (HT-1080): 300 nM

CO[C@@H](C(=O)N[C@H]1CC[C@H](OC(=O)CCCCCCCCCCC(C)C)CN(C)C1=O)[C@H](O)[C@@H](O)[C@H](O)/C=C/C(C)C
IC50 [1]: > 50000 nM

CO[C@@H](C(=O)N[C@H]1CCCCN(CCOC(=O)C2CCCCC2)C1=O)[C@H](O)[C@@H](O)[C@H](O)/C=C/C(C)(C)C
IC50 (MDA-MB-435 [2]): 17 nM

CO[C@@H](C(=O)N[C@@H](C)C(=O)NCCOC(=O)C1CCCCC1)[C@H](O)[C@@H](O)[C@H](O)/C=C/C(C)(C)C
IC50 (MDA-MB-435 [3]): 4 nM

CNC(=O)[C@H](CC(C)C)NC(=O)[C@H](OC)[C@H](O)[C@@H](O)[C@H](O)/C=C/C(C)(C)C
IC50 (MDA-MB-435 [2]): 20000 nM

CO[C@@H](C(=O)N[C@H]1CCc2ccccc2NC1=O)[C@H](O)[C@@H](O)[C@H](O)/C=C/C(C)(C)C
IC50 (MDA-MB-435 [4]): 3.8 nM | IC50 (A549): 9 nM | IC50 (HCT-116): 44 nM

CO[C@@H](C(=O)N[C@H]1CCCCNC1=O)[C@H](O)[C@@H](O)[C@H](O)/C=C/C1CCCC1
IC50 (MDA-MB-435 [2]): 0.4 nM

CO[C@H]1[C@@H](OC(=O)/C=C/C=C/C=C/C=C/C(=O)O)CC[C@]2(CO2)[C@@H]1[C@@]1(C)O[C@@H]1CC=C(C)C
IC50 (MDA-MB-231): 54 nM | IC50 [1]: 200 nM

CO[C@@H](C(=O)N[C@H]1CC[C@@H](OC(=O)C2CCCCC2)CNC1=O)[C@H](O)[C@@H](O)[C@H](O)/C=C/C(C)(C)C
IC50 (MDA-MB-435 [4]): 40 nM | IC50 (A549): 13 nM | IC50 (HCT-116): 23 to 40 nM

COc1ccc(N2CCN(c3nc(-c4ccccn4)nc4ccccc34)CC2)cc1
IC50 [1]: > 100000 nM

CCCCCCCCCCCCCC(=O)OCCC[C@H](NC(=O)[C@H](OC)[C@H](O)[C@@H](O)[C@H](O)/C=C/C(C)(C)C)C(=O)NC
IC50 (MDA-MB-435 [2]): 190 nM

CO[C@@H](C(=O)N[C@H]1CC[C@@H](OC(=O)C2CCCCC2)CNC1=O)[C@H](O)[C@@H](O)[C@H](O)/C(C)=C/C(C)(C)C
IC50 [5]: > 10000 nM | IC50 (HCT-116): 140 nM

CO[C@H](C(=O)N[C@H]1CCCCNC1=O)[C@@H](O)[C@H](O)[C@@H](O)/C=C/C(C)C
IC50 (MDA-MB-435 [2]): 4 nM

CC(C)/C=C/[C@@H](O)[C@H](O)[C@@H](O)[C@@H](O)C(=O)N[C@H]1CCCCNC1=O
IC50 (MDA-MB-435 [4]): 12000 nM

CO[C@H](C(=O)N[C@@H]1CCCCNC1=O)[C@@H](O)[C@H](O)[C@@H](O)/C=C/C(C)C
IC50 (HCT-116): > 50000 nM

CO[C@@H](C(=O)N[C@H]1CCCCNC1=O)[C@H](O)[C@@H](O)[C@H](O)/C=C\C(C)C
IC50 (MDA-MB-435 [2]): 14 nM

CCCCCCCCCCCCCC(=O)O[C@H]1CC[C@H](NC(=O)[C@H](OC)[C@H](O)[C@@H](O)[C@H](O)/C=C/C(C)C)C(=O)NC1 [BENGAMIDE A]
IC50 (MDA-MB-435 [4]): 1 nM | IC50 (HCT-116): 0.4 to 16 nM

CCCCCCCCCCCCCC(=O)O[C@H]1CC[C@H](NC(=O)[C@H](OC)[C@H](O)[C@@H](O)[C@H](O)/C=C/C(C)C)C(=O)N(C)C1 [BENGAMIDE B]
IC50 (MDA-MB-435 [4]): 2 nM

CO[C@@H](C(=O)N[C@H]1CCCCNC1=O)[C@H](O)[C@@H](O)[C@H](O)/C=C/C(C)C [BENGAMIDE E]
IC50 (MDA-MB-435 [4]): 4 to 7 nM | IC50 (MDA-MB-435 [2]): 3.8 nM | IC50 (HCT-116): 3.8 to 600 nM

CO[C@@H](C(=O)N[C@H]1CC[C@H](O)CN(C)C1=O)[C@H](O)[C@@H](O)[C@H](O)/C=C/C(C)C [BENGAMIDE F]
IC50 (MDA-MB-435 [4]): 3 nM

Source: ChEMBL document CHEMBL4052606, “The Bengamides: A Mini-Review of Natural Sources, Analogues, Biological Properties, Biosynthetic Origins, and Future Prospects” (J Nat Prod, 2017)
